Our source for the LC retention time values is the RepoRT retention time repository.

The nature of the series: A: acetonitrile + 0.1% formic acid + 10 mM ammonium formate; B: 5% water + 95% acetonitrile + 0.1% formic acid + 10 mM ammonium formate; gradient (min/%B) 0/10 2/10 22/100 27/100 27.1/10. As to conditions: stereoisomer not certain.

As for `CC(=O)N[C@@H](C)C(=O)O` [N-Acetyl-L-alanine], the LC retention time was 4.36 min.
Regarding `O=C(O)CNC(=O)c1cccnc1` [Nicotinuric acid], the LC retention time stood at 5.19 min.
With `COc1ccccc1C=CC=O` [2-Methoxycinnamaldehyde] the figure was 0.436 min.
To `Cc1cc2nc[nH]c2cc1C` [5,6-Dimethylbenzimidazole] belongs 0.733 min; to `NC(=O)c1ccccc1O` [Salicylamide], 0.448 min.
For the compound `COc1cccc(OC)c1C(=O)O` [2,6-Dimethoxybenzoic acid], the LC retention time came to 0.628 min.
`Nc1ccccc1C(=O)CC(N)C(=O)O` [L-Kynurenine]: the LC retention time is 4.67 min.
To `Cc1ccnc2c1NC(=O)c1cccnc1N2C1CC1` [Nevirapine] belongs 0.596 min; to `CC(=O)NC(CO)C(=O)O` (racemic) [N-Acetyl-DL-serine], 5.82 min; to `O=C1CCNC(=O)N1` [Dihydrouracil], 0.746 min.
To `CC(C)OC(=O)C(C)(C)Oc1ccc(C(=O)c2ccc(Cl)cc2)cc1` [Fenofibrate] belongs 0.401 min; to `NCCCC(=O)O` [gamma-Aminobutyric acid], 5.83 min; to `CC(C)NCC(O)COc1ccc(CC(N)=O)cc1` (stereo unspecified) [Atenolol], 3.34 min.
To `Cn1cnc2[nH]c(=O)[nH]c(=O)c21` [7-Methylxanthine] belongs 1.37 min; to `CC(=O)c1c(O)cc(C)oc1=O` [DehydroacetIc acid], 0.444 min.
`NCC(O)c1ccc(O)cc1` (stereo unspecified) [Octopamine]: the LC retention time is 3.85 min.
With `N[C@@H](Cc1ccc(O)cc1)C(=O)O` [L-Tyrosine] the figure was 5.62 min.
With `Fc1ccc(C2CCNCC2COc2ccc3c(c2)OCO3)cc1` (stereo unspecified) [Paroxetine] the figure was 1.19 min.
For the compound `O=C(O)CCCCCCCC(=O)O` [Azelaic acid], the LC retention time is 0.604 min.
To `Nc1ccc(C(=O)O)c(O)c1` [4-Aminosalicylic Acid] belongs 0.675 min.
With `O=c1[nH]cnc2c1ncn2C1CC(O)C(CO)O1` (stereo unspecified) [Deoxyinosine] the figure was 2.64 min; with `CN(C)C(=N)N=C(N)N` [Metformin], 3.67 min.
With `O=C(O)CNC(=O)c1cccc(O)c1` [m-Hydroxyhippuric Acid] the figure was 3.46 min; with `CCOC(=O)c1ccc(N)cc1` [Ethyl 4-aminobenzoate], 0.422 min; with `O=Cc1ccc(O)cc1` [4-Hydroxybenzaldehyde], 3.98 min.
For `CC1OC(OC2C(CO)OC(OC3C(CO)OC(O)C(O)C3O)C(O)C2O)C(O)C(O)C1NC1C=C(CO)C(O)C(O)C1O` (stereo unspecified) [Acarbose], the LC retention time worked out at 8.07 min.
To `CC=CC=CC(=O)O` [Sorbic acid] belongs 0.486 min; to `Cn1cncc1CC(NC(=O)CCN)C(=O)O` [L-Anserine], 7.92 min.
With `NCC(O)c1ccccc1` (stereo unspecified) [2-Amino-1-phenylethanol] the figure was 2.92 min; with `CC(C=CC1=C(C)CCCC1(C)C)=CC=CC(C)=CC(=O)O` [Retinoic Acid], 0.433 min.
With `Cc1c[nH]c(=O)[nH]c1=O` [Thymine] the figure was 0.793 min.
Regarding `O=C(O)CCCCCCC(=O)NCC(=O)O` [Suberyl Glycine], the LC retention time was found to be 5.46 min.
With `OCCc1c[nH]c2ccccc12` [Indole-3-ethanol] the figure was 1.31 min; with `Nc1ccn(C2OC(COP(=O)(O)OP(=O)(O)OP(=O)(O)O)C(O)C2O)c(=O)n1` (stereo unspecified) [Cytidine 5'-triphosphate], 10.1 min.
`COc1cc(C=CC(=O)O)cc(OC)c1O` [Sinapic acid]: the LC retention time came out at 0.561 min.
With `O=C(O)C(c1ccccc1)C1CCCCN1` (stereo unspecified) [Ritalinic Acid] the figure was 3.41 min; with `Nc1ccc(O)c(C(=O)O)c1` [5-Aminosalicylic acid], 1.82 min.
To `CCCOC(=O)c1cc(O)c(O)c(O)c1` [Propyl gallate] belongs 0.478 min.
For `CCCCCC(=O)NCC(=O)O` [Hexanoyl Glycine], the LC retention time stood at 1.27 min.
With `O=c1c(-c2ccc(O)cc2)coc2cc(O)cc(O)c12` [Genistein] the figure was 0.458 min.
Regarding `CCN(Cc1ccncc1)C(=O)C(CO)c1ccccc1` (stereo unspecified) [Tropicamide], the LC retention time worked out at 0.641 min.
To `CC(=O)N[C@@H](CC(C)C)C(=O)O` [N-Acetyl-L-leucine] belongs 1.18 min.
To `Cn1c(=O)[nH]c2ncn(C)c2c1=O` [1,7-dimethylxanthine] belongs 0.655 min; to `COc1ccccc1OCCNCC(O)COc1cccc2[nH]c3ccccc3c12` (stereo unspecified) [Carvedilol], 1.03 min.
Consider `COc1cc(CC(=O)O)ccc1O` [4-Hydroxy-3-methoxyphenylacetic Acid], for which the LC retention time was 0.535 min.
To `CCCCC1=NC2(CCCC2)C(=O)N1Cc1ccc(-c2ccccc2-c2nn[nH]n2)cc1` [Irbesartan] belongs 0.475 min; to `Cc1ncc(COP(=O)(O)O)c(C=O)c1O` [Pyridoxal 5'-phosphate], 5.97 min; to `O=C(CO)COP(=O)(O)O` [Dihydroxyacetone phosphate], 6.59 min.
With `O=C(O)CCCCC1SCC2NC(=O)NC21` (stereo unspecified) [Biotin] the figure was 1.17 min; with `O=C(O)Cc1c[nH]c2ccc(O)cc12` [5-Hydroxyindole-3-acetic acid], 0.651 min.
With `NC(=O)c1ccc[n+](C2OC(COP(=O)(O)OP(=O)([O-])OCC3OC(n4cnc5c(N)ncnc54)C(OP(=O)(O)O)C3O)C(O)C2O)c1` (stereo unspecified) [NADP] the figure was 8.7 min.
For the compound `Nc1nc2c(ncn2C2CC(O)C(CO)O2)c(=O)[nH]1` (stereo unspecified) [2'-Deoxyguanosine], the LC retention time stood at 4.06 min.
With `CC1(C)SC2C(NC(=O)C(N)c3ccccc3)C(=O)N2C1C(=O)O` (stereo unspecified) [Ampicillin] the figure was 4.86 min; with `NC(=O)CCCCC1CCSS1` (racemic) [DL-6,8-Thioctamide], 0.473 min; with `CCOC(=O)c1cncn1C(C)c1ccccc1` (stereo unspecified) [Etomidate], 0.602 min.
With `O=c1[nH]cnc2c1ncn2C1OC(CO)C(O)C1O` (stereo unspecified) [Inosine] the figure was 3.94 min.
With `O=c1cc(-c2ccc(O)cc2)oc2cc(O)cc(O)c12` [Apigenin] the figure was 0.481 min; with `NC(=O)CC[C@H](N)C(=O)O` [L-Glutamine], 6.54 min.
Take `CC1CNC(=O)NC1=O` (stereo unspecified) [5,6-Dihydro Thymine]: the LC retention time stood at 0.621 min.
Regarding `CCCC(NC(C)C(=O)N1C(C(=O)O)CC2CCCCC21)C(=O)OCC` (stereo unspecified) [Perindopril erbumine], the LC retention time is 0.553 min.
For `CC(=O)N[C@@H](CCCN=C(N)N)C(=O)O` [N-Acetyl-L-arginine], the LC retention time amounted to 6.21 min.
To `COc1cc(C=O)ccc1O` [Vanillin] belongs 0.435 min; to `CCc1occc(=O)c1O` [2-Ethyl-3-hydroxy-4H-pyran-4-one], 0.586 min; to `OCC1OC(OCC2OC(O)C(O)C(O)C2O)C(O)C(O)C1O` (stereo unspecified) [Melibiose], 7.08 min.
Take `O=c1ccc2cc(OC3OC(CO)C(O)C(O)C3O)c(O)cc2o1` (stereo unspecified) [Esculin]: the LC retention time was 2.52 min.
To `Nc1ncnc2nc[nH]c12` [Adenine] belongs 2 min.
To `OCCN1CCN(CCCN2c3ccccc3Sc3ccc(Cl)cc32)CC1` [Perphenazine] belongs 1.55 min; to `C=C(OP(=O)(O)O)C(=O)O` [Phospho(enol)pyruvic Acid], 7.08 min; to `CC12C=CC(=O)C=C1CCC1C3CC(O)C(O)(C(=O)CO)C3(C)CC(O)C12F` (stereo unspecified) [Triamcinolone], 0.499 min.
To `CC(CN1c2ccccc2Sc2ccccc21)N(C)C` (stereo unspecified) [Promethazine] belongs 0.952 min; to `CCc1ccc(CCOc2ccc(CC3SC(=O)NC3=O)cc2)nc1` (stereo unspecified) [Pioglitazone], 0.47 min; to `O=P(O)(O)OCC1OC(O)C(O)C1O` [D-Ribose 5-phosphate], 7.12 min.
For `CC(=O)NC(CCCCN)C(=O)O` [N-alpha-Acetyl-L-lysine], the LC retention time came out at 6.17 min.
With `Nc1ncnc2c1ncn2C1OC(COP(=O)(O)OP(=O)(O)O)C(O)C1O` (stereo unspecified) [Adenosine 5'-diphosphate] the figure was 9.46 min.
To `NCCCCC(=O)O` [5-Aminovaleric acid] belongs 5.83 min; to `C[N+](C)(C)CCOP(=O)(O)OP(=O)([O-])OCC1OC(n2ccc(N)nc2=O)C(O)C1O` (stereo unspecified) [Citicoline], 8.51 min.
To `COc1cc(C=CC(=O)CC(=O)C=Cc2ccc(O)c(OC)c2)ccc1O` [Curcumin] belongs 0.431 min.
For the compound `CCCCOC(=O)CCCCCCCCC(=O)OCCCC` [Dibutyl sebacate], the LC retention time was 0.404 min.
To `O=c1cc(-c2ccccc2)oc2cc(O)cc(O)c12` [Chrysin] belongs 0.434 min.
Consider `NC(=O)C[C@H](N)C(=O)O` [L-Asparagine], for which the LC retention time came out at 6.65 min.
To `NCCCNCCCCNCCCN` [Spermine] belongs 9.6 min; to `CCOC(=O)CC(C)=O` [Ethyl acetoacetate], 0.418 min; to `CC(C)(N)C(=O)O` [2-Aminoisobutyric acid], 5.89 min.
To `CC(C)C[C@H](N)C(=O)O` [L-Leucine] belongs 5.01 min; to `Nc1ccc(C(=O)O)cc1` [p-Aminobenzoic acid], 0.555 min.
With `NC(=O)NC1NC(=O)NC1=O` (stereo unspecified) [Allantoin] the figure was 3.1 min.
